Measurements published in patent publication US7674902B2, “Luminescent metal complexes for monitoring renal function” (priority 2004, dated 2010).

Experiment: Biodistribution of radiolabelled DTPA complexes in normal rats, compared with 99mTc-DTPA positive control
Assay type: in vivo
Details: normal Sprague-Dawley rats, 111In-labelled complex; for biodistribution of the complex (comparison with reference complex): time points 15 minutes, 60 minutes, 120 minutes, 24 hours
Experimental: Commercially available DTPA kit (Draximage Co., Ontario, Canada) was labeled with ^99mTc by the standard procedure described in the package insert that was supplied with the kit, and was administered to Sprague-Dawley rats (3 rats for each time point of 15 minutes, 60 minutes, 120 minutes, and 24 hours).
A mixture of the stock solution of DTPA-mono(7-amino-4-methylcoumarin)amide ligand (1 mg/mL in 0.5M sodium acetate buffer, 100 μL), obtained from Gunma University, Japan (Ozaki, et. al. Reference 30), sodium acetate solution (0.5M, 100 μL), and commercially available ^111InCl3 solution (0.1M HCl, 100-200 μCi/100 μL) was adjusted to pH 4.5 and incubated at ambient temperature for 30 minutes. The resulting indium complex was purified by reverse phase HPLC and administered to Sprague-Dawley rats. The biodistribution was carried out in the same manner as that of ^99mTc-DTPA in Example 1 (FIG. 8).

Substance	biodistribution of the complex (comparison with reference complex)	hepatobiliary clearance (relative to reference complex)
^111In-DTPA-mono(pyrazinylamino)ethylamide complex [Example 7]	nearly identical to that of ^99mTc-DTPA	–
^111In-DTPA-mono(quinoxanylamino)ethylamide complex [Example 8]	nearly identical to that of the DTPA-coumarin derivative in Example 2	–
^111In-HMDTPA-1-naphthylurethane complex [Example 5]	–	much higher hepatobiliary clearance

Now from value to substance, other results behind:

biodistribution of the complex (comparison with reference complex)	Substance	hepatobiliary clearance (relative to reference complex)
nearly identical to that of ^99mTc-DTPA	^111In-DTPA-bis(salicylamide) complex [Example 6]	–
nearly identical to that of ^99mTc-DTPA	^111In-DTPA-mono(1-naphthylamide) complex [Example 4]	–
nearly identical to that of ^99mTc-DTPA	^111In-DTPA-mono(salicylamide) complex [Example 3]	–
